Values quoted from earlier work, collected in US20090312439A1, “USE OF ROLL COMPACTED PYROGENICALLY PRODUCED SILICON DIOXIDE IN PHARMACEUTICAL COMPOSITIONS” (priority 2006, published 2009).

saturation equilibrium value (pure active constituent in water, reached only after shaking over several days): 1.1 mg/100 ml
release of active constituent on contact with water (sorbate of 5.2 mg on 100 mg pyrogenic silicic acid (AEROSIL 200)): supersaturated solution is formed
SMILES: C#C[C@]1(O)CC[C@H]2[C@@H]3CCc4cc(O)ccc4[C@H]3CC[C@@]21C [ethinyl oestradiol]
